Laboratory results reported in patent publication US6469132B1, “Diblock copolymer and use thereof in a micellar drug delivery system” (McGill University, priority 1999, dated 2002).
“And” between values parts separate entries of the source, which are not always exact repeats. Equal entries are not always repeated.

Tests used:
[1] = test system: PC 12 rat pheochromocytoma cells; assay: Cell differentiation assay: neurite-like outgrowth; format: cell-based
Description: In each case, the degree of neurite-like outgrowth was taken to be 100% in the control wells of untreated PC 12 cells. The degree of differentiation in cell wells in the presence of NGF and/or drug is expressed as a percentage relative to 100% for the control.
PC 12 cells were plated in 24 well plates at 37° C. in 5% CO2 and incubated in DMEM supplemented with 5% fetal bovine serum and the treatments described below. Neurite-like outgrowth in PC 12 cells was detected after a 48 hour period using a Nikon light microscope. For each data point 5 fields of 250-300 cells/well were analyzed. For the quantitation of neurite-like outgrowth the PC 12 cells were considered to have outgrowth if their processes were longer than the length of the diameter of the cell.
A range of concentrations of either NGF (0.1 to 50 ng/mL), FK506 (1 to 500 nM) or L,685-818 (1 to 500 nM) alone or combinations of 0.5 or 5 ng/mL of NGF with either FK506 (5 to 500 nM) or L-685,818 (50 nM to 10 μM), were incubated with the PC 12 cells for a 48 hour incubation period. The wells with untreated cells were used as controls.
The unfiltered solution of the micelle incorporated drug was added to the cell wells at different concentrations: a 10 μL aliquot of a FK506-micelle solution was added to each 0.5 mL cell well. The 10 μL aliquot was produced by diluting the 1.1×10^−5 moles/L FK506-PCL20-b-PEO44 micelle (1% w/w) stock solution. The final concentration of FK506 in the cell well was made to range from […]. In the same manner, a 10 uL aliquot of the L-685,818 micelle solution was added to each 0.5 mL cell well, such that final concentration in the well was made to range from 10 nM to 1 μM. In each case, 5 ng/mL NGF was also added to each cell well. Several controls were also used where the cells were treated with 5 ng/mL of NGF alone, 1% (w/w) PCL20-b-PEO44 micelles alone, 1% (w/w) PCL20-b-PEO44 micelles containing 1 nM FK 506 without NGF or 1% (w/w) PCL20-b-PEO44 micelles containing 10 nM L-685,818.

[2] = Partition coefficient for pyrene between PCL-b-PEO micelles and water (fluorescence I3/I1 method); format: physicochemical; conditions: extrapolation to 100% water content; PCL-b-PEO (20-b-44) micelles
Description: The degree of non-covalent incorporation of physical entrapment of a hydrophobic drug into a micelle is determined by the partition coefficient of the drug between the micellar core and the surrounding aqueous medium. The affinity of the PCL-b-PEO micelles for lipophilic compounds was assayed by the determination of the Kv for the hydrophobic model compound, pyrene, between the PCL-b-PEO micelles and water. This method has been previously used to determine the Kv of pyrene between polystyrene-b-polyacrylic acid micelles and water. This fluorescence method is based on pyrene's sensitivity to the hydrophobicity of its microenvironment. […]
The fluorescence method used to determine the partition coefficient for pyrene between a mixed water/DMF solvent mixture (60-90% water content) and block copolymer micelles (concentration PCL20-b-PEO44 ranges from 1×10^−6 to 1×10^−2 g/g), at 25° C., has been described in detail elsewhere (Zhao, J. et al. (1997) Macromolecules, 30:7143-7150). […] Briefly, the intensity ratio of vibrational band three to vibrational band one (I3/I1) in the fluorescence emission spectrum of pyrene reflects the polarity of the surrounding environment of the probe molecules. […]
Steady-state fluorescent spectra were measured using a SPEX Fluorolog 2 spectrometer in the right-angle geometry (90° collecting optics). […] For fluorescence emission spectra, λεξ was 339 nm. […]

[3] = polystyrene-b-polyacrylic acid micelles; Zhao et al. 1997; cited from earlier work
PC 12 cells = assay: Cell uptake of pyrene incorporated micelles; format: cell-based, rat; conditions: 390 nm, zero time = 1, PCL14-b-PEO44 micelles
Description: The in vitro biocompatibility of the PCL-b-PEO micelles (14-b-44, 20-b-44) was tested by incubating the micelles with a wide range of cell lines for both 24-hour and 48-hour periods. The Trypan blue and Alamar blue survival assays were then used to quantify the survival rates in the presence of the PCL-b-PEO micelles. The capability of the PCL-b-PEO micelle system to deliver a hydrophobic compound was first tested in vitro using pyrene as a model compound. The pyrene incorporated PCL-b-PEO micelles were incubated with PC 12 cells over a 24-hour period. At 0, 4, 8 and 24 hours, samples of the supernatant were studied by fluorescence in order to determine the quantity of pyrene remaining in the supernatant at each time point. Likewise, at each time point, cells were isolated and their fluorescence was examined under the fluorescence microscope in order to determine if the decrease in the fluorescence within the supernatant was accompanied by an increase in fluorescence within the cells.
Pyrene incorporated micelles were prepared such that a total of 2×10^−7 moles/L of pyrene had been added to the 1% (w/w) micelle (PCL14-b-PEO44) solution, An aliquot of the micelle solution was incubated with PC 12 cells cultured in DMEM at 37° C., 5% CO2. At time 0, and 4, 8 and 24 hours, the fluorescence intensity (Perkin Elmer LS 50) of the supernatant was measured at 390 nm to determine the amount of pyrene remaining in the supernatant. Controls consisting of medium or medium and micelles alone were also measured. Following the removal of the aliquot of supernatant at each time point, the remaining supernatant was removed and the cells were washed three times with 100 uL of phosphate buffer saline. The cells were then gently scraped and fixed with aquamount on a slide and analyzed using a fluorescence microscope (Olympus BH-2).

[4] = drug alone 1 to 500 nM, 48 h, untreated control = 100%

C=CC[C@@H]1/C=C(\C)C[C@H](C)C[C@H](OC)[C@H]2O[C@@](O)(C(=O)C(=O)N3CCCC[C@H]3C(=O)O[C@H](/C(C)=C/[C@@H]3CC[C@@H](O)[C@H](OC)C3)[C@H](C)[C@@H](O)CC1=O)[C@H](C)C[C@@H]2OC [FK506]
degree of neurite-like outgrowth [1, 4]: ~100%
degree of neurite-like outgrowth ([1]; free FK506 1-100 nM with 5 ng/mL NGF, 48 h): 220-380%
dose adequate to potentiate neurite-like outgrowth ([1]; in vitro, PC12 cell cultures): 1 nM

CC[C@@H]1/C=C(\C)[C@@H](O)[C@H](C)C[C@H](OC)[C@H]2O[C@@](O)(C(=O)C(=O)N3CCCC[C@H]3C(=O)O[C@H](/C(C)=C/[C@@H]3CC[C@@H](O)[C@H](OC)C3)[C@H](C)[C@@H](O)CC1=O)[C@H](C)C[C@@H]2OC [L-685,818]
degree of neurite-like outgrowth [1, 4]: ~100%
effect of drug concentration on degree of differentiation ([1]; drug alone, no NGF, 48 h): no effect on the degree of differentiation
potentiation of the effect of NGF on neurite-like outgrowth ([1]; with 5 ng/mL NGF, PC 12 cell cultures): potentiate the effect of NGF on the outgrowth of PC 12 cells

c1cc2ccc3cccc4ccc(c1)c2c34 [pyrene]
partition coefficient (Kv) for pyrene between PCL-b-PEO micelles and water [2]: ~10^2
partition coefficient for pyrene between PS-b-PAA micelles and water [3]: ~10^5
relative fluorescence intensity of pyrene in supernatant (PC 12 cells; after 4 hours): 0.70 (±0.05)
relative fluorescence intensity of pyrene in supernatant (PC 12 cells; after 8 hours): 0.60 (±0.05)
relative fluorescence intensity of pyrene in supernatant (PC 12 cells; after 24 hours): 0.55 (±0.05)

NGF: nerve growth factor
degree of neurite-like outgrowth ([1]; 5 ng/mL NGF alone, 48 h, untreated control = 100%): 160±5% and 180±6%
degree of neurite-like outgrowth ([1]; NGF alone 0.1 to 50 ng/mL, 48 h, untreated control = 100%): 110-260%
